pIC50: −log10 of the molar value.
Assays:
TEC = molecular target: T1, TEC (Homo sapiens, UniProt P42680); assay: Inhibition of a panel of kinases, in vitro HotSpot kinase assay: TEC; assay type: biochemical; conditions: D-compounds panel data; 1 μM ATP
T1 sequence (P42680 1-631): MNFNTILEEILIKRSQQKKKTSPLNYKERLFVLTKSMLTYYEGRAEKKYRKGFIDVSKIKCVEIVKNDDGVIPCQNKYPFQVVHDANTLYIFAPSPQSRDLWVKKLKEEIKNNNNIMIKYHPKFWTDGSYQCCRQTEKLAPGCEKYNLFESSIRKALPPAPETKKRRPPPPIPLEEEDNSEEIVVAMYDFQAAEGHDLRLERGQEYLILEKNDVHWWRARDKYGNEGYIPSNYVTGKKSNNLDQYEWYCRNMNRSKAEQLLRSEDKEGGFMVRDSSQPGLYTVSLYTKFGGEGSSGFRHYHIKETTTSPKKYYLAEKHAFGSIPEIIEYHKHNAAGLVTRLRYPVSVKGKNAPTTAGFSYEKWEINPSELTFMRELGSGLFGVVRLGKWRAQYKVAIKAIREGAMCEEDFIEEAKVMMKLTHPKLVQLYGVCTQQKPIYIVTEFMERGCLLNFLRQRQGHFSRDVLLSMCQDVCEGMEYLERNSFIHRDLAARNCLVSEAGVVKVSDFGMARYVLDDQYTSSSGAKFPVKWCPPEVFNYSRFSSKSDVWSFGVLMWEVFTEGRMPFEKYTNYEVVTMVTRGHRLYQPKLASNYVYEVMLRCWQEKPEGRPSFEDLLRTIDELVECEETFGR
Procedure: (§1) The degree of inhibition of a panel of kinases is determined using the in vitro HotSpot kinase assay (purified enzymes, ^33P-ATP, an appropriate substrate and 1 μM ATP).

ITK = molecular target: T2, ITK (Homo sapiens, UniProt Q08881); assay: Inhibition of a panel of kinases, in vitro HotSpot kinase assay: ITK; assay type: biochemical; conditions: D-compounds panel data; 1 μM ATP
T2 sequence (Q08881 1-620): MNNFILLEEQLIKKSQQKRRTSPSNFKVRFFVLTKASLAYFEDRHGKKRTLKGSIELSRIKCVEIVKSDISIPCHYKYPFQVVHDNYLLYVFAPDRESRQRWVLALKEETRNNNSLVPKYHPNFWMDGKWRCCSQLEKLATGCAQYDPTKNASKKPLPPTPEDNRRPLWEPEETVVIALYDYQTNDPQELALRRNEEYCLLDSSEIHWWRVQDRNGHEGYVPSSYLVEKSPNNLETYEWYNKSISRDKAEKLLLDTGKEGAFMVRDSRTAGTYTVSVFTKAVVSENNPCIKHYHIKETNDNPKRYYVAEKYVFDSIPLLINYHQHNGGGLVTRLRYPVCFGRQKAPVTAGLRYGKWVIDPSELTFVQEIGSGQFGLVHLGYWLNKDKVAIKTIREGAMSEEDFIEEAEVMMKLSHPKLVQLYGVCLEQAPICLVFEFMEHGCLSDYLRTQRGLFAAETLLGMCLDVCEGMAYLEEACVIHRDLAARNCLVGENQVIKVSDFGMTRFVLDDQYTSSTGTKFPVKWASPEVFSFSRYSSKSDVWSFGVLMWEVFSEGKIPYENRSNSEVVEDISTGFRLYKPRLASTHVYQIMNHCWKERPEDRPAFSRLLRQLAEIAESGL
Procedure: as §1

Row | Compound | pIC50 (TEC) | pIC50 (ITK)
1 | C[C@@H]1[C@H](NC(=O)Nc2cccnc2)CCCN1c1cnc(C(N)=O)c(Nc2ccc(C3(C)CCN(C4CCCC4)CC3)cc2)n1 [Example D-9, 3-{[4-(1-cyclopentyl-4-methylpiperidin-4-yl)phenyl]amino}-5-[(2R,3R)-2-methyl-3-{[(pyridin-3-yl)carbamoyl]amino}piperidin-1-yl]pyrazine-2-carboxamide] | 7.00 to 8.00 | ≥ 8.00
2 | C[C@@H]1[C@H](NC(=O)N(C)C)CCCN1c1cnc(C(N)=O)c(Nc2cc(CN3CCOCC3)ns2)n1 [Example D-118, 5-[(2R,3R)-3-[(dimethylcarbamoyl)amino]-2-methylpiperidin-1-yl]-3-{[3-(morpholin-4-ylmethyl)-1,2-thiazol-5-yl]amino}pyrazine-2-carboxamide] | 6.00 to 7.00 | 6.00 to 7.00
3 | C[C@@H]1[C@H](NC(=O)c2ccc(C3CC3)cc2)CCCN1c1cnc(C(N)=O)c(Nc2ccc(OC3C[C@H]4CC[C@@H](C3)N4C)cc2)n1 (stereo partly drawn) [Example D-104, 5-[(2R,3R)-3-(4-cyclopropylbenzamido)-2-methylpiperidin-1-yl]-3-[(4-{[(1R,5S)-8-methyl-8-azabicyclo[3.2.1]octan-3-yl]oxy}phenyl)amino]pyrazine-2-carboxamide] | ≥ 8.00 | 7.00 to 8.00
4 | CN1CCC(n2cc(Nc3nc(N4CCC[C@@H](n5ccc6cc(C7CC7)ccc6c5=O)C4)cnc3C(N)=O)cn2)CC1 [Example D-141, 5-[(3R)-3-(6-cyclopropyl-1-oxo-1,2-dihydroisoquinolin-2-yl)piperidin-1-yl]-3-{[1-(1-methylpiperidin-4-yl)-1H-pyrazol-4-yl]amino}pyrazine-2-carboxamide] | 7.00 to 8.00 | 6.00 to 7.00
5 | C[C@@H]1[C@H](NC(=O)N(C)C)CCCN1c1cnc(C(N)=O)c(Nc2ccc(C(=O)N3CCN(C)CC3)cc2)n1 [Example D-110, 5-[(2R,3R)-3-[(dimethylcarbamoyl)amino]-2-methylpiperidin-1-yl]-3-{[4-(4-methylpiperazine-1-carbonyl)phenyl]amino}pyrazine-2-carboxamide] | 6.00 to 7.00 | 5.00 to 6.00
6 | C[C@@H]1CC[C@@H](NC(=O)c2ccc(C3CC3)cc2)CN1c1cnc(C(N)=O)c(Nc2cnn(C)c2)n1 [Example D-143, 5-[(2R,5R)-5-(4-cyclopropylbenzamido)-2-methylpiperidin-1-yl]-3-[(1-methyl-1H-pyrazol-4-yl)amino]pyrazine-2-carboxamide] | 6.00 to 7.00 | < 5.00
7 | C[C@@H]1[C@H](n2ccc3cc(C4CC4)ccc3c2=O)CCCN1c1cnc(C(N)=O)c(Nc2ccc(N3CCN(C)CC3)cc2)n1 [Example D-6, 5-[(2R,3R)-3-(6-cyclopropyl-1-oxo-1,2-dihydroisoquinolin-2-yl)-2-methylpiperidin-1-yl]-3-{[4-(4-methylpiperazin-1-yl)phenyl]amino}pyrazine-2-carboxamide] | 7.00 to 8.00 | 6.00 to 7.00
8 | C[C@@H]1[C@H](NC(=O)c2ccc(C3CC3)cc2F)CCCN1c1cnc(C(N)=O)c(Nc2ccc(S(=O)(=O)N3CCCC3)cc2)n1 [Example D-139, 5-[(2R,3R)-3-(4-cyclopropyl-2-fluorobenzamido)-2-methylpiperidin-1-yl]-3-{[4-(pyrrolidine-1-sulfonyl)phenyl]amino}pyrazine-2-carboxamide] | 6.00 to 7.00 | < 5.00
9 | C[C@@H]1[C@H](NC(=O)N(C)C)CCCN1c1cnc(C(N)=O)c(Nc2ccc3cccnc3c2)n1 [Example D-121, 5-[(2R,3R)-3-[(dimethylcarbamoyl)amino]-2-methylpiperidin-1-yl]-3-[(quinolin-7-yl)amino]pyrazine-2-carboxamide] | 5.00 to 6.00 | 5.00 to 6.00
10 | C[C@@H]1[C@H](NC(=O)c2ccc(C3CC3)cc2F)CCCN1c1cnc(C(N)=O)c(Nc2ccc(CN3CCN(C)CC3)cc2)n1 [Example D-113, 5-[(2R,3R)-3-(4-cyclopropyl-2-fluorobenzamido)-2-methylpiperidin-1-yl]-3-({4-[(4-methylpiperazin-1-yl)methyl]phenyl}amino)pyrazine-2-carboxamide] | 7.00 to 8.00 | 6.00 to 7.00
11 | C[C@@H]1[C@H](NC(=O)c2ccc(C3CC3)cc2F)CCCN1c1cnc(C(N)=O)c(Nc2ccc(C3(C)CCN(C4CC4)CC3)cc2)n1 [Example D-138, 5-[(2R,3R)-3-(4-cyclopropyl-2-fluorobenzamido)-2-methylpiperidin-1-yl]-3-{[4-(1-cyclopropyl-4-methylpiperidin-4-yl)phenyl]amino}pyrazine-2-carboxamide] | 7.00 to 8.00 | 6.00 to 7.00
12 | C[C@@H]1[C@H](NC(=O)c2ccc(C3CC3)cc2)CCCN1c1cnc(C(N)=O)c(Nc2ccc(OC3CCN(CC(F)(F)F)CC3)cc2)n1 [Example D-98, 5-[(2R,3R)-3-(4-cyclopropylbenzamido)-2-methylpiperidin-1-yl]-3-[(4-{[1-(2,2,2-trifluoroethyl)piperidin-4-yl]oxy}phenyl)amino]pyrazine-2-carboxamide] | 6.00 to 7.00 | 5.00 to 6.00
13 | Cc1nsc(Nc2nc(N3CCC[C@@H](NC(=O)N(C)C)[C@H]3C)cnc2C(N)=O)c1C [Example D-119, 3-[(dimethyl-1,2-thiazol-5-yl)amino]-5-[(2R,3R)-3-[(dimethylcarbamoyl)amino]-2-methylpiperidin-1-yl]pyrazine-2-carboxamide] | < 5.00 | < 5.00
14 | C[C@@H]1[C@H](NC(=O)c2ccc(C3CC3)cc2)CCCN1c1cnc(C(N)=O)c(Nc2cc(CN3CCCCC3)ns2)n1 [Example D-140, 5-[(2R,3R)-3-(4-cyclopropylbenzamido)-2-methylpiperidin-1-yl]-3-{[3-(piperidin-1-ylmethyl)-1,2-thiazol-5-yl]amino}pyrazine-2-carboxamide] | 7.00 to 8.00 | 7.00 to 8.00
15 | C[C@@H]1[C@H](NC(=O)c2ccc(C3CC3)cc2)CCCN1c1cnc(C(N)=O)c(Nc2ccc(N3CCC4(CC3)COC4)cc2)n1 [Example D-99, 5-[(2R,3R)-3-(4-cyclopropylbenzamido)-2-methylpiperidin-1-yl]-3-[(4-{2-oxa-7-azaspiro[3.5]nonan-7-yl}phenyl)amino]pyrazine-2-carboxamide] | ≥ 8.00 | 6.00 to 7.00
16 | COC(C)(C)c1ccc(C(=O)N[C@@H]2CCCN(c3cnc(C(N)=O)c(Nc4cnn(C)c4)n3)[C@@H]2C)cc1 [Example D-161, 5-[(2R,3R)-3-[4-(2-methoxypropan-2-yl)benzamido]-2-methylpiperidin-1-yl]-3-[(1-methyl-1H-pyrazol-4-yl)amino]pyrazine-2-carboxamide] | ≥ 8.00 | 6.00 to 7.00
17 | C[C@@H]1CC[C@H](NC(=O)c2ccc(C3CC3)cc2)CN1c1cnc(C(N)=O)c(Nc2ccc(N3CCN(C)CC3)c(F)c2)n1 [Example D-149, 5-[(2R,5 S)-5-(4-cyclopropylbenzamido)-2-methylpiperidin-1-yl]-3-{[3-fluoro-4-(4-methylpiperazin-1-yl)phenyl]amino}pyrazine-2-carboxamide] | 6.00 to 7.00 | 6.00 to 7.00
18 | C[C@@H]1[C@H](NC(=O)N(C)C)CCCN1c1cnc(C(N)=O)c(Nc2cnn(C)c2)n1 [Example D-128, 5-[(2R,3R)-3-[(dimethylcarbamoyl)amino]-2-methylpiperidin-1-yl]-3-[(1-methyl-1H-pyrazol-4-yl)amino]pyrazine-2-carboxamide] | 7.00 to 8.00 | 6.00 to 7.00
